# Measured values: patent US20150266864A1, “HETEROAROMATIC COMPOUNDS, METHOD FOR PREPARING THE COMPOUNDS, PHARMACEUTICAL COMPOSITIONS, USES AND METHOD FOR TREATING ACUTE AND CHRONIC PAIN” (CRISTÁLIA PRODUTOS QUÍMICOS FARMACÊUTICOS LTDA, priority 2012, published 2015)
# How the values were obtained:
# Swiss mice [1] = assay: Hot plate model, assay for acute pain; format: in vivo; details: ip, 32.25 μmol/kg
# Swiss-type male mice = assay: RotaRod performance test, motor coordination; details: for Mice residence time on the rotational cylinder: 9 rpm, cut off 180 s, mean ± SEM
# Procedure: The assessment of motor coordination in mice, by the rotarod performance test, was carried out to detect any possible sedative or muscle relaxant effect caused by the compounds of the present invention, previously tested in acute and neuropathic pain models. This test was carried out according to the method of described by Dunham & Miya and animal motor coordination was evaluated using RotaRod apparatus [Dunham M. S. & Miya. R. T. (1957). J. Amer. Pharmac. Assoc. Sci. Edit. 1957, 46, 208-209].
# The RotaRod apparatus (Model 412 EFF, Insight Equipements, Brazil) is a device that measures motor coordination and thus evaluates balance alterations in mice. The apparatus consists of an acrylic box splited into four compartments with a rotational cylinder among them. The cylinder rotates at constant speed driven by a motor and regulated to the constant speed mode of 5-37 revolutions per minute (rpm). In this study the speed was set up to 9 rpm.
# To remain on the rotational cylinder, the animal needs to move around, so that the motor coordination can be quantified. The four compartments have drop detection system, through the impact, a microprocessor circuit, for timing the permanence of the animal at the compartment, and for counting the number of falls.
# The day before the test, Swiss-type male mice (19-25 g) were placed on the rotational cylinder, set up to the constant speed mode of 9 rpm for adaptation and learning. A group of 10 mice were used for each tested compound, and the total period spent on the rotational cylinder (in seconds) was recorded for a period of 180 seconds (cut off time) and it was accept a maximum of three falls for each animal. Motor coordination was assessed at times 0 (before treatment), 15, 30, 60 and 120 minutes after compounds administration at a dose of 32.25 μmol/kg.
# All compounds were administered intraperitoneally (ip).
# The Student's t-test was also used to compare means between two experimental groups. Differences were considered significant when p<0.05.
# Swiss mice [2] = assay: Hot plate model, assay for acute pain; format: in vivo; details: ip, 32.25 μmol/kg, plate 52° C., compared to morphine sulfate at the same dose
# Source text: The antinociceptive activity (AA) of the present invention selected compounds (C3, C9, C11, C12, C13, C15 and C17) was investigated in hot plate model [Hot Plate Model LE7406, Scientific Inc.] described by Kuraishi et al. [Kuraishi, Y., Harada, Y., Aratani, S., Satoh, M., Takagi, H. Brain Research 1983.273, 245-2523]. This method is valid to evaluate the analgesic activity of substances acting on the central nervous system. Swiss mice weighing 20-25 g were placed on a metal plate heated up to 52° C. The animals were withdrawn from the hot plate at the time they lead their forepaws toward the mouth to lick, being this an indicative of pain second Le Bars et al. [Le Bars, D., Gozariu, M., Cadden, S. W. Animal models of nociception. Pharmacol. Rev. 2001, 53 (4), 597-652]. In this way, it was analyzed how long the animal, treated or not (control) with the analgesic substance, remained on the plate at 52° C.; the longest residence time of an animal on the plate was 35 seconds. This time limit (or cut off) (35 s) was determined by the average of three measurements of latency control values, obtained for each animal multiplied by three, to prevent any kind of tissue injury on the footpad of animals's paw due to long permanence on the heated surface. The protocol consisted in the intraperitoneal (ip) injection of the selected compounds of the present invention at a dose of 32.25 μmol/kg. The antinociceptive activity was evaluated at intervals of 10 minutes until effect completely disappear and, compared to morphine sulfate ([…]) at the same dose of 32.25 μmoles/kg (12.2 mg/kg). The investigated parameter is the latency of reflex to paw withdrawal in response to thermal stimulus. The results were expressed as percentage of AA, which was calculated according to Equation 1 for each experiment.
# rats subjected to SNL [3] = assay: Spinal nerve ligation (SNL) L5 model, mechanical allodynia (digital Von Frey); format: in vivo, rat
# Procedure: (§1) This experimental model was proposed by Kim and Chung [Kim, S. H.; Chung, J. M. Pain 1992, 50: 355-363] and consists of ligation of spinal nerves. Male Wistar rats, 180-220 g, were anesthetized with a mixture of ketamine and xylazine (60 mg/kg and 5 mg/kg, respectively) intraperitoneally. After the dorsal region asepsy, an incision was made between L5 and S1. The L6 transverse process was removed for locating the nerves L4 and L5, which were carefully isolated, and tight ligation of the L5 nerve with 6.0 silk thread was made, interrupting flow of the axon of the nerve. After this procedure, para-spinal muscles and skin were sutured, and then a topical antiseptic was applied. False operated animals (sham) were subjected to the same procedure, however the spinal nerve was not ligated.
# To evaluate the development of mechanical allodynia, digital analgesimeter (Model EFF301; Insight Equipments), digitalized version coupled to a pointed filament (Von Frey model variant) was used. This test aims to assess changes in tactile sensitivity in response to a mechanical stimulus as a result of a neural damage. The device consisted of a hand-held force transducer fitted with a sensor tip, through which a pressure with increasing strength is applied against the footpad of the animals hindpaw to assess the threshold of paw withdrawal, that is, the digital analgesimeter records the maximal strength, in grams (g), in which the animal withstands until the paw withdrawal reflex.
# Animals were placed in individual acrylic boxes and let to acclimate for 30 min before the beginning of the test. After this period, the thresholds of hindpaw withdrawal were determinded. For each hindpaw, five records of the withdrawal thresholds were made, and the average for each hindpaw was defined as the paw withdrawal threshold control.
# (§2) The treatment started on the 7th day after surgery. Compounds were diluted in water or DMSO and administered through intraperitoneal route on daily basis, during 7 days, at a dose of […]. The effectiveness of tested compounds was assessed on days 1, 3, and 7 days after treatment, always before the next administration of the compound. Latencies were also assessed on days 1, 3, and 7 after treatment interruption.
# (§3) Differences were considered significant when p<0.05.
# rats subjected to SNL [4] = assay: Spinal nerve ligation (SNL) L5 model, thermal hyperalgesia; format: in vivo, rat
# Procedure: as §1
# This method aims to evaluate the animal behavior in response to hyperalgesic phenomenon resulting from the injury induced by the ligament of spinal nerve (L5). In this regard, paw withdrawal in response to thermal stimulus was used, and the thermal stimulus was induced by the radiant heat of an incandescent lamp bulb. The paw withdrawal test was performed as described for the assessment of thermal hyperalgesia in the sciatic nerve chronic constrictive injury model.
# as §3, §2
# [5] = T 15 min after ip administration, 32.25 μmol/kg
# [6] = T 30 min after ip administration, 32.25 μmol/kg (diazepam 2 mg/kg)
# [7] = T 60 min after ip administration, 32.25 μmol/kg (diazepam 2 mg/kg)
# [8] = T 120 min after ip administration, 32.25 μmol/kg (diazepam 2 mg/kg)
# [9] = ip during 7 days, 32.25 μmol/kg
SMILES,side effects compared to morphine (Swiss mice [1]),melting point [°C],Mice residence time on the rotational cylinder (Swiss-type male mice; [5]) [s],Mice residence time on the rotational cylinder (Swiss-type male mice; [6]) [s],Mice residence time on the rotational cylinder (Swiss-type male mice; [7]) [s],Mice residence time on the rotational cylinder (Swiss-type male mice; [8]) [s],"antinociceptive activity (AA), hot plate (Swiss mice [2])","paw withdrawal threshold, mechanical allodynia (rats subjected to SNL [3]; after 3 days of treatment, 32.25 μmol/kg ip, p<0.05)",reversal of allodynia signs associated with neuropathic pain (rats subjected to SNL [3]; [9]),reversal of hyperalgesia signs associated with neuropathic pain (rats subjected to SNL [4]; [9]),"increase on the latency vs control post-surgery (rats subjected to SNL [4]; since the 3rd day of treatment, 32.25 μmol/kg ip)","animal residence time on the rotational cylinder compared to controls (Swiss-type male mice; 15 minutes after administration, 32.25 μmol/kg)"
"OC1(c2ccc(Cl)cc2)CCN(CCc2c[nH]nc2-c2ccc(F)cc2)CC1 [C13, 4-(4-chlorophenyl)-1-{2-[3-(4-fluorophenyl)-1H-pyrazol-4-yl]ethyl}piperidin-4-ol]",no side effects of conventional morphine,142 to 144,100.9,95.5,143.7,152.4,exhibit antinociceptive activity of intensity and kinetics similar to morphine sulfate,,,,,
"CCN1CCN(CCc2c[nH]nc2-c2ccc(F)cc2)CC1.Cl.Cl.Cl.O.O.O [C12, 1-ethyl-4-{2-[3-(4-fluorophenyl)-1H-pyrazol-4-yl]ethyl}piperazine trihydrochloride trihydrate]",no side effects of conventional morphine,,179.6,178.6,178.2,179.8,exhibit antinociceptive activity of intensity and kinetics similar to morphine sulfate,significant (p<0.05) paw withdrawal threshold,effective in reverse the hyperalgesia and allodynia signs,effective in reverse the hyperalgesia and allodynia signs,statistically significant increase,"equal to the time observed for the negative control, and significantly higher than the time observed for the control amitriptyline hydrochloride"
